In PMC7948460, “Volatile allosteric antagonists of mosquito odorant receptors inhibit human-host attraction” (The Journal of Biological Chemistry, 2020):
“And” between values parts separate entries of the source, which are not always exact repeats. Identical values can stand only once. Like-named read-outs stand apart in the source and are kept apart here.

Tests used:
AgamORco = biological target: T1, AgamORco (Anopheles gambiae, UniProt Q7QCC7); test: cell-based
T1 sequence (Q7QCC7 1-478): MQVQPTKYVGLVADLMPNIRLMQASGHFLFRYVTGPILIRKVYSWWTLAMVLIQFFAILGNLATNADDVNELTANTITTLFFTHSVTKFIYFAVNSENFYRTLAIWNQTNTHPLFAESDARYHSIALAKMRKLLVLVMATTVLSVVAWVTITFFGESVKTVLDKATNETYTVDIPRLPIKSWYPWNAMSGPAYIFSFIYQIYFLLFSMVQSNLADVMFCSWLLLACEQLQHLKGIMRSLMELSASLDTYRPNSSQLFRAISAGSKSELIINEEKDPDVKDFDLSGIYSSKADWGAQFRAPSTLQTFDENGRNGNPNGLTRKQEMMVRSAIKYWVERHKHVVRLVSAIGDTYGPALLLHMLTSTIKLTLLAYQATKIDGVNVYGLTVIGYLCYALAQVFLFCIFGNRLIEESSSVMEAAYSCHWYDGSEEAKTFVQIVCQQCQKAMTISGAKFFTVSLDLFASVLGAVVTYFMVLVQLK

AaegORco = biological target: T2, AaegORco (Aedes aegypti, UniProt Q178U6); test: Two-microelectrode voltage-clamp recordings of Xenopus laevis oocytes expressing AaegORco, VUAA1-induced currents; type: cell-based; conditions: 200 μM VUAA1 with equimolar compound; for Normalized response (%) of AaegORco to VUAA1 in combination with compound: printed in picture Fig. 4B
T2 construct: expressed in transfected cells; host or cells: Xenopus laevis oocytes microinjected with cRNA transcribed from the pSP64tRFA vector
T2 sequence (Q178U6 1-478): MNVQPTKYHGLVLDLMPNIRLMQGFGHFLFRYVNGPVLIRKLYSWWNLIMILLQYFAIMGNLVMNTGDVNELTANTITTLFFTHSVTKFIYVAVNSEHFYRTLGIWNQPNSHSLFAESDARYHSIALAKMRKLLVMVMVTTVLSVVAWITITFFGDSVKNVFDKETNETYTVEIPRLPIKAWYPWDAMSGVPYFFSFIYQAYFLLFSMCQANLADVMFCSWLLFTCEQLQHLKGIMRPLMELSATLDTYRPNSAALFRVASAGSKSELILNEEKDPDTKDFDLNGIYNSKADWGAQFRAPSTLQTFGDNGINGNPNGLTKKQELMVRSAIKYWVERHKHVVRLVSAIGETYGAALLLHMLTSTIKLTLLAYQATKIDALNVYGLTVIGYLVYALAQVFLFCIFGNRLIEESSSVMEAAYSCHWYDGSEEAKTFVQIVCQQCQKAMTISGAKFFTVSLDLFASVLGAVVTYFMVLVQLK
Method: Across all treatments, we observed a consistent increase in the third VUAA1-induced response relative to the first and second VUAA1 administrations (Fig. 4A). For this reason, the inhibition level (Fig. 4B) was calculated by normalizing the response amplitude elicited by the second stimulation, to the average current responses elicited by the first and last VUAA1 stimulations.
In vitro transcription and two-microelectrode voltage-clamp electrophysiological recordings were performed as described ([62]). Briefly, ORco of Ae. aegypti (AaegORco; GenBank: BK006142.1) was synthesized using the mMESSAGE mMACHINE SP6 kit (ThermoFisher Scientific) from the linearized pSP64tRFA expression vector. The harvested X. laevis oocytes were manually separated from the ovaries prior to collagenase treatment (8 mg/ml, 30 min, 18 °C) in order to remove the follicular layer. Stage V–VI oocytes were rinsed in washing solution (96 mM NaCl, 2 mM KCl, 5 mM MgCl2, and 5 mM Hepes, pH 7.6) and microinjected with a mixture of 1 μl AaegOrco (3 μg/μl) and 2 μl of double-distilled water. Injected oocytes were incubated at 18 °C for 3 days in Ringer’s solution (96 mM NaCl, 2 mM KCl, 5 mM MgCl2, 0.8 mM CaCl2, and 5 mM Hepes, pH 7.6) supplemented with 5% dialyzed horse serum, 50 μg/ml tetracycline, 100 μg/ml streptomycin, and 550 μg/ml sodium pyruvate. Whole-cell currents were recorded using the two-microelectrode voltage-clamp technique. During recording sessions, the holding potential was maintained at −80 mV using an OC-725C oocyte clamp (Warner Instruments, LLC). Oocytes were placed in a RC-3Z oocyte recording chamber (Warner Instruments) and exposed for 8 s to 200 μM VUAA1 (Innovapharm Ltd), 2,4-octadienal predominantly trans (Sigma-Aldrich), or carvacrol (Sigma-Aldrich). All compounds were solubilized in 200 μl of DMSO prior to the dilutions in the Ringer’s solution. Currents were allowed to return to baseline between odorant applications. Data acquisition and concentration–response analyses were carried out with a Digidata 1550A and the pCLAMP10 software (Molecular Devices). Statistical significance was evaluated with one-way ANOVA followed by Tukey's post test.

Ae. albopictus = test: Repellence bioassay, human hand landing counts; type: in vivo, Aedes albopictus
Bm5 cells = test: Toxicity to the AgamORco/Photina-expressing Bm5 cells during dose-response evaluation; type: cell-based; conditions: Bombyx mori, Bm5 cells stably expressing AgamORco and Photina
[1] = 50 μM ORcoRAM2 (OA), read-out: IC50 in binding competition assay
[2] = 50 μM ORcoRAM2 (OA), read-out: pIC50 in binding competition assay (converted)
[3] = 100 μM ORcoRAM2 (OA), read-out: IC50, inhibition of OA-dependent AgamORco channel activity
[4] = 100 μM ORcoRAM2 (OA), read-out: pIC50, inhibition of OA-dependent AgamORco channel activity (converted)
[5] = 150 μM ORcoRAM2 (OA), read-out: IC50 in binding competition assay
[6] = 150 μM ORcoRAM2 (OA), read-out: pIC50 in binding competition assay (converted)
[7] = 0.01 μL equivalent per cm^2, 5 min
[8] = 0.04 μL equivalent per cm^2, 5 min
[9] = 0.2 μL equivalent per cm^2, 5 min

Row | SMILES | IC50 (AgamORco; [1]) | IC50 (AgamORco; [2]) | IC50 (AgamORco; [3]) | IC50 (AgamORco; [4]) | IC50 (AgamORco; [5]) | IC50 (AgamORco; [6]) | Reduction of VUAA1-activated currents (AaegORco) | Normalized response (%) of AaegORco to VUAA1 in combination with compound (AaegORco) | Mean % repellency (Ae. albopictus; [7]) | Average landings (+ st. dev) (Ae. albopictus; 0.01 μL per cm2, 5 min) | Mean % repellency (Ae. albopictus; [8]) | Average landings (+ st. dev) (Ae. albopictus; 0.04 μL per cm2, 5 min) | Mean % repellency (Ae. albopictus; [9]) | Average landings (+ st. dev) (Ae. albopictus; 0.2 μL per cm2, 5 min) | Concentrations toxic to the cells (Bm5 cells) | EC50 (AgamORco; absence of antagonist, read-out: EC50 of ORco agonist on AgamORco)
1 | Cc1ccc(C(C)C)cc1O [CRV, Carvacrol] | 26.3 µM | 26.3 µM | 23.4 µM | 23.3 µM | 28.4 µM | 28.4 µM | ~85% | -84.8% | 67.8% and 67.8 ± 9% | 17.6±4.9 | 99.1 ± 2% | 0.5±1.1 | 99.8 ± 0.7% | 0.1±0.4 | above 250 μM | 
2 | CC(C)OC(=O)C=Cc1ccccc1 [IPC, Isopropyl cinnamate, reference compound] |  |  |  |  |  |  |  |  |  |  |  |  | 96 ± 1.6% | 2.1±0.8 |  | 
3 | C=CC(C)(CCC=C(C)C)OC(C)=O (stereo not drawn) [LA, Linalyl acetate] |  |  |  |  |  |  |  |  |  |  |  |  | 72.3 ± 15.6% | 14.6±8.1 |  | 
4 | CCN(CC)C(=O)c1cccc(C)c1 [DEET, N,N-Diethyl-3-methylbenzamide, reference compound] |  |  |  |  |  |  |  |  | 96.7% and 96.7 ± 2.6% | 1.8±1.4 | 100 ± 0% | 0±0 | 100 ± 0% | 0±0 |  | 
5 | CCC/C=C/C=C/C=O [OCT, (2E,4E)-2,4-Octadienal] | 41.8 µM | 41.8 µM | 59.8 µM | 59.8 µM | 117 µM | 117 µM | approximately 60% | -59.5% | 13.8% and 13.8 ± 12.8% | 47.1±7.0 | 97.9 ± 2.7% | 1.1±1.5 | 100 ± 0% | 0±0 |  | 
6 | CC1=CCC2[C@H](C1)C2(C)C (stereo partly drawn) [CAR, (1S)-3-Carene] |  |  |  |  |  |  |  |  |  |  |  |  | 89.8 ± 4.3% | 5.4±2.3 |  | 
7 | CC(C)c1ccc(CO)cc1 [CA, Cumin alcohol] |  |  |  |  |  |  |  |  | 63.2% and 63.2 ± 11.8% | 20.1±6.5 | 78 ± 7% | 11.8±3.7 | 99.8 ± 0.7% | 0.1±0.4 |  | 
8 | CCc1ccc(NC(=O)CSc2nnc(-c3ccccn3)n2CC)cc1 [ORcoRAM2, reference compound] |  |  |  |  |  |  |  |  |  |  |  |  |  |  |  | 91.3 µM and 91.9 µM and 91 µM
